Key:
Adult houseflies [1] = experiment: Housefly knock-down test, 0.025% oil solution spray in cubic chamber; format: in vivo; conditions: 0.7 ml of 0.025% oil solution sprayed in 70 cm cubic chamber, 2 minutes after spraying
Experimental: A solution of 0.025 part of the present compound (A) in 10 parts of dichloromethane was mixed with 89.975 parts of deodorized kerosene to obtain a 0.025% oil solution.
(§1) Adult houseflies (5 males and 5 females) were left in a cubic chamber (70 cm at each side). Into the chamber, 0.7 ml of 0.025% oil solution of the present compound (A) prepared above was sprayed with a spray gun at a pressure of 8.8×10^4 Pa from a small window on the side of the chamber. Two minutes after spraying, the number of the knocked-down insects was counted (repeated twice).
The same test was carried out except that 4-propargyl-2,3,5,6-tetrafluorobenzyl (1R)-trans-3-(2-methyl-1-propenyl)-2,2-dimethylcyclopropanecarboxylate represented by the formula:
[drawing 7] (The compound described as compound 2 in TABLE 1 of EP 0196156 A1; hereinafter, referred to as the comparative compound 1) was used instead of the present compound (A).
Knock-down ratios, i.e., ratios of the number of knocked-down insects 2 minutes after the spraying to the number of tested insects, are shown in Table 1.

Adult houseflies [2] = experiment: Housefly KT90 test, 0.00625% oil solution spray in cubic chamber; format: in vivo; conditions: 0.7 ml of 0.00625% oil solution sprayed in 70 cm cubic chamber, counted up to 10 minutes after spraying
Experimental: A solution of 0.00625 part of the present compound (A) in 10 parts of dichloromethane was mixed with 89.99375 parts of deodorized kerosene to obtain a 0.00625% oil solution.
as §1, with “0.00625%” for “0.025%”, “sprayed into the chamber” for “sprayed”, “Then, up to 10” for “Two”, “counted with time” for “counted”, “twice). The time required for knocking down 90% of the tested insects (KT90) was calculated from the results.” for “twice).”
The same tests were carried out except for using the comparative compound 1 and 4-methoxymethyl-2,3,5,6-tetrafluorobenzyl (1R)-trans-3-(2-cyano-1-propenyl)-2,2-dimethylcyclopropanecarboxylate represented by the formula:
[drawing 8] (The compound described in JP 2004-2363 A; hereinafter, referred to as the comparative compound 2.).

Compound	Knock-down ratio (%) (Adult houseflies [1])	KT90 (minutes), time required for knocking down 90% of the tested insects (Adult houseflies [2])
C#CCc1c(F)c(F)c(COC(=O)[C@@H]2[C@@H](C=C(C)C)C2(C)C)c(F)c1F [Comparative compound 1, 4-propargyl-2,3,5,6-tetrafluorobenzyl (1R)-trans-3-(2-methyl-1-propenyl)-2,2-dimethylcyclopropanecarboxylate]	0	Not less than 10 minutes
COCc1c(F)c(F)c(COC(=O)[C@@H]2[C@@H](C=C(C)C#N)C2(C)C)c(F)c1F [Comparative compound 2, 4-methoxymethyl-2,3,5,6-tetrafluorobenzyl (1R)-trans-3-(2-cyano-1-propenyl)-2,2-dimethylcyclopropanecarboxylate]		4.3 min
C#CCc1c(F)c(F)c(COC(=O)[C@@H]2[C@@H](C=C(C)C#N)C2(C)C)c(F)c1F [Present compound (A), 4-propargyl-2,3,5,6-tetrafluorobenzyl (1R)-trans-3-(2-cyano-1-propenyl)-2,2-dimethylcyclopropanecarboxylate]	100	2.0 min
